Test results published in patent publication US8906852B2 (MethylGene Inc., priority 2010, dated 2014).

Tests used:
CNV progression = experiment: In vivo choroidal neovascularization (CNV) model, laser-induced, intravitreal injection; design: species or system Male Brown-Norway rats; conditions: rat; for inhibition in vivo at 3 nmol/eye / inhibition in vivo at 10 nmol/eye: 240 h; for inhibition in vivo at 3 nmol/eye: 3 nmol/eye injected on Day 3, CNV area on Day 10, vs vehicle; for inhibition in vivo at 10 nmol/eye / Inhibition of CNV progression: 10 nmol/eye injected on Day 3, CNV area on Day 10, vs vehicle
Excerpt: This test measures the capacity of compounds to inhibit CNV progression. CNV is the main cause of severe vision loss in patients suffering from age-related macular degeneration (AMD).
Male Brown-Norway rats (Japan Clea Co., Ltd.) were used in these studies.
Rats were anesthetized by intraperitoneal injection of pentobarbital, and the right pupil was dilated with 0.5% tropicamide and 0.5% phenylephrine hydrochloride. The right eye received 6 laser burns between retinal vessels using a slit lamp delivery system of Green laser Photocoagulator (Nidex Inc., Japan), and microscope slide glass with Healon™ (AMO Inc) used as a contact lens. The laser power was 100 or 200 mW for 0.1 second and spot diameter was 100 μm. At the time of laser burn, bubble production was observed, which is an indication of rupture of Bruch's membrane which is important for CNV generation.
Rats were divided into the groups based on their body weight using SAS software (SAS institute Japan, R8.1) after laser irradiation (Day 0). After animals were anesthetized, and the right pupil dilated (as above mentioned), the right eye of the animal received the compound or vehicle by an injection (10 μL/eye) at doses of 10 or 3 nmol/eye on Day 3. The compounds were dissolved or suspended in CBS, PBS, or other adequate vehicles before injection.
On Day 10, the animals were anesthetized with ether, and high molecular weight fluorescein isothiocyanate (FITC)-dextran (SIGMA, 2×10^6 MW) was injected via a tail vein (20 mg/rat). About 30 min after FITC-dextran injection, animals were euthanized by ether or carbon dioxide, and the eyes were removed and fixed with 10% formaline neutral buffer solution. After over 1 hour of fixation, RPE-choroid-sclera flat mounts were obtained by removing cornea, lens and retina from the eyeballs. The flat mounts were mounted in 50% glycerol on a microscope slide, and the portion burned by laser was photographed using a fluorescence microscope (Nikon Corporation, excitation filter:465-495 nm, absorption filter:515-555 nm). The CNV area was obtained by measurement of hyper-fluorescence area observed on the photograph using Scion image.
The average CNV area of 6 burns was used as an individual value of CNV area, and the average CNV area of compound treated group was compared with that of the vehicle-treated group.

VEGFR/KDR = target: T1, VEGFR/KDR (Homo sapiens, UniProt P35968); experiment: VEGFR/KDR kinase inhibition, DELFIA assay; type: biochemical; conditions: ATP 0.6 uM (2x Km), enzyme 5 nM
T1 construct: made in house; host or cells: Sf9 cells (Spodoptera frugiperda), baculovirus
How it was run: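 Enzyme (5 nM) pre-incubated 4 min on ice with inhibitor and Mg-ATP (0.6 uM, 2× Km), then reacted 10-30 min at 30° C on immobilized poly(Glu4,Tyr). EDTA-quenched phosphotyrosine detected with Europium-labeled antibody by time-resolved fluorescence; IC50 from concentration series.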

T1 sequence (P35968 806-1356): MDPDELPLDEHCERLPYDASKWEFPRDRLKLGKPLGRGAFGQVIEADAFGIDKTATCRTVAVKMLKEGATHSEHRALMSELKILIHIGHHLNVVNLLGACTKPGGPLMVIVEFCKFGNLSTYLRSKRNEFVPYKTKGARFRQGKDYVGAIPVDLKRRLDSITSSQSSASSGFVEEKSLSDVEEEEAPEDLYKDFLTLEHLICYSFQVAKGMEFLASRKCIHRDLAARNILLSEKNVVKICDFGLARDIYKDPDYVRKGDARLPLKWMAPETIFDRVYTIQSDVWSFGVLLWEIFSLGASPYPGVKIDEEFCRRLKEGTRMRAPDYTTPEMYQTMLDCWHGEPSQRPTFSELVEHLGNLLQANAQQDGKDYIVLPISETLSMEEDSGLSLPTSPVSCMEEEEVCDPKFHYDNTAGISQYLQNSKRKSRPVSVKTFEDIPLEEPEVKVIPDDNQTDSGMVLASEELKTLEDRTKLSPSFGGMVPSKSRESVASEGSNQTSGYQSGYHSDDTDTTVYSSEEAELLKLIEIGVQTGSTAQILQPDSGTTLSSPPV

## CN1CCC(CN2CCN(C(=O)c3ccc(-c4cc5nccc(Oc6ccc(NC(=O)NC7CC7)cc6F)c5s4)nc3)CC2)CC1 [Compound 232, 1-cyclopropyl-3-(3-fluoro-4-(2-(5-(4-((1-methylpiperidin-4-yl)methyl)piperazine-1-carbonyl)pyridin-2-yl)thieno[3,2-b]pyridin-7-yloxyl)phenyl)urea]
CNV progression
  inhibition in vivo at 3 nmol/eye: 40 to 60%
VEGFR/KDR
  IC50: < 0.05 µM

## COCCN(Cc1ccc(-c2cc3nccc(Oc4ccc(NC(=O)NC5CC5)cc4F)c3s2)nc1)C(=O)[C@H](C)O [Compound 89, (S)-N-((6-(7-(4-(3-cyclopropylureido)-2-fluorophenoxy)thieno[3,2-b]pyridin-2-yl)pyridin-3-yl)methyl)-2-hydroxy-N-(2-methoxyethyl)propanamide]
CNV progression
  inhibition in vivo at 10 nmol/eye: ≥ 60%
VEGFR/KDR
  IC50: < 0.05 µM

## COCCN(CCc1ccc(-c2cc3nccc(Oc4ccc(NC(=O)NC5CC5)cc4F)c3s2)nc1)C(C)=O [Compound 41, N-(2-(6-(7-(4-(3-cyclopropylureido)-2-fluorophcnoxy)-thieno[3,2-b]-pyridin-2-yl)pyridin-3-yl)ethyl)-N-(2-methoxyethyl)-acetamide]
CNV progression
  inhibition in vivo at 10 nmol/eye: 40 to 60%
VEGFR/KDR
  IC50: < 0.05 µM

## CC(=O)N(CCS(C)(=O)=O)Cc1ccc(-c2cc3nccc(Oc4ccc(NC(=O)NC5CC5)cc4F)c3s2)nc1 [Compound 43, N-((6-(7-(4-(3-cyclopropylureido)-2-fluorophenoxy)thieno[3,2-b]pyridin-2-yi)pyridin-3-yl)methyl)-N-(2-(methylsulfonyl)ethyl)acetamide]
CNV progression
  inhibition in vivo at 10 nmol/eye: 40 to 60%
VEGFR/KDR
  IC50: < 0.05 µM

## COCCN(Cc1ccc(-c2cc3nccc(Oc4ccc(NC(=O)NC5CC5)cc4F)c3s2)nc1)C(N)=O [Compound 5, N-[3-((6-(7-(4-(3-cyclopropylureido)-2-fluorophenoxy)thieno[3,2-b]pyridin-2-yl)pyridin-3-yl)methyl)]-N-[3-(2-methoxyethyl)]urea]
CNV progression
  inhibition in vivo at 10 nmol/eye: 40 to 60%
VEGFR/KDR
  IC50: < 0.05 µM

## O=C(Nc1ccc(Oc2ccnc3cc(-c4ccc(CN5CCNCC5)cn4)sc23)c(F)c1)NC1CC1 [Compound 49, 1-cyclopropyl-3-(3-fluoro-4-(2-(5-(piperazin-1-ylmethyl)pyridin-2-yl)thieno[3,2-b]-pyridin-7-yloxy)phenyl)urea]
CNV progression
  inhibition in vivo at 10 nmol/eye: ≥ 60%
VEGFR/KDR
  IC50: < 0.05 µM

## CC(C)N(CCN1CCN(C(=O)c2ccc(-c3cc4nccc(Oc5ccc(NC(=O)NC6CC6)cc5F)c4s3)nc2)CC1)C(C)C [Compound 230, 1-cyclopropyl-3-(4-(2-(5-(4-(2-(diisopropylamino)ethyl)piperazine-1-carbonyl)pyridin-2-yl)thieno[3,2-b]pyridin-7-yloxy)-3-fluorophenyl)urea]
CNV progression
  inhibition in vivo at 3 nmol/eye: 40 to 60%
VEGFR/KDR
  IC50: < 0.05 µM

## CN1CCN(CCn2cc(-c3cc4nccc(Oc5ccc(NC(=O)NC6CC6)cc5F)c4s3)cn2)CC1 [Compound 154, 1-cyclopropyl-3-(3-fluoro-4-(2-(1-(2-(4-methylpiperazin-1-yl)ethyl)-1H-pyrazol-4-yl)thieno[3,2-b]pyridin-7-yloxy)phenyl)urea]
CNV progression
  inhibition in vivo at 3 nmol/eye: 40 to 60%
VEGFR/KDR
  IC50: < 0.05 µM

## Cn1c(CN2CCCC2=O)cnc1-c1cc2nccc(Oc3ccc(NC(=O)NC4CC4)cc3F)c2s1 [Compound 137, 1-cyclopropyl-3-(3-fluoro-4-(2-(1-methyl-5-((2-oxopyrrolidin-1-yl)methyl)-1H-imidazol-2-yl)thieno[3,2-b]pyridin-7-yloxy)phenyl)urea]
CNV progression
  inhibition in vivo at 10 nmol/eye: 40 to 60%
VEGFR/KDR
  IC50: < 0.05 µM

## O=C(Nc1ccc(Oc2ccnc3cc(-c4ccc(CN5CCN(CCO)CC5)cn4)sc23)c(F)c1)NC1CC1 [Compound 55, 1-cyclopropyl-3-(3-fluoro-4-(2-(5-((4-(2-hydroxyethyl)piperazin-l-yl)methyl)pyridin-2-yl)thieno[3,2-b]-pyridin-7-yloxy)phenyl)urea]
CNV progression
  inhibition in vivo at 10 nmol/eye: 40 to 60%
VEGFR/KDR
  IC50: < 0.05 µM

## COCCNCc1ccc(-c2cc3nccc(Oc4ccc(NC(=O)NC5CC5)c(F)c4F)c3s2)nc1 [Compound 25, 1-cyclopropyl-3-(2,3-difluoro-4-(2-(5-((2-methoxyethylamino)methyl)pyridin-2-yl)thieno[3,2-b]pyridin-7-yloxy)phenyl)urea]
CNV progression
  inhibition in vivo at 10 nmol/eye: ≥ 60%
VEGFR/KDR
  IC50: < 0.05 µM

## COCCOCCOCCOCCN(Cc1ccc(-c2cc3nccc(Oc4ccc(NC(=O)NC5CC5)cc4F)c3s2)nc1)C(=O)CO [Compound 45]
CNV progression
  inhibition in vivo at 10 nmol/eye: 40 to 60%
VEGFR/KDR
  IC50: < 0.05 µM

## COCCN(C=N)Cc1ccc(-c2cc3nccc(Oc4ccc(NC(=O)NC5CC5)cc4F)c3s2)nc1 [Compound 7, N-((6-(7-(4-(3-cyclopropylureido)-2-fluorophenoxy)thieno[3,2-b]pyridin-2-yl)pyridin-3-yl)methyl)-N-(2-methoxyethyl)formimidamide]
CNV progression
  inhibition in vivo at 10 nmol/eye: ≥ 60%
VEGFR/KDR
  IC50: < 0.05 µM

## CNC(=O)N(CCOC)Cc1ccc(-c2cc3nccc(Oc4ccc(NC(=O)NC5CC5)cc4F)c3s2)nc1 [Compound 3, N-[3-((6-(7-(4-(3-cyclopropylureido)-2-fluorophenoxy)thieno[3,2-b]pyridin-2-yl)pyridin-3-yl)methyl)]-N-(1-methyl)-N-[3-(2-methoxyethyl)]urea]
CNV progression
  Inhibition of CNV progression: A (greater than or equal to 60% inhibition)
VEGFR/KDR
  IC50: < 0.05 µM

## CN1CCN(Cc2ccc(-c3cc4nccc(Oc5ccc(NC(=O)NC6CC6)cc5F)c4s3)nc2)CC1 [Compound 51, 1-cyclopropyl-3-(3-fluoro-4-(2-(5-((4-methylpiperazin-1-yl)methyl)pyridin-2-yl)thieno[3,2-b]-pyridin-7-yloxy)phenyl)urea]
CNV progression
  inhibition in vivo at 10 nmol/eye: ≥ 60%
VEGFR/KDR
  IC50: < 0.05 µM

## N-((6-(7-(4-(3-cyclopropylureido)-2-fluorophenoxy)thieno[3,2-b]pyridin-2-yl)pyridin-3-yl)methyl)-N-(2-methoxyethyl)formimidamide [Compound 7]
CNV progression
  Inhibition of CNV progression: B (≧40% to <60% inhibition)

## CCNC(=O)N(CCOCCOCCOCCOC)Cc1ccc(-c2cc3nccc(Oc4ccc(NC(=O)NC5CC5)cc4F)c3s2)nc1 [Compound 36, N-[3-((6-(7-(4-(3-cyclopropylureido)-2-fluorophenoxy)-thieno[3,2-b]-pyridin-2-yl)pyridin-3-yl)methyl)]-N-(1-ethyl)-N-[3-(2,5,8,11-tetraoxatridecan-13-yl)]urea]
CNV progression
  inhibition in vivo at 10 nmol/eye: 40 to 60%
VEGFR/KDR
  IC50: < 0.05 µM

## (S)-1-(4-(2-(5-((3-amino-2-oxopyrrolidin-1-yl)methyl)pyridin-2-yl)thieno[3,2-b]pyridin-7-yloxy)-3-fluorophenyl)-3-cyclopropylurea [Compound 108]
CNV progression
  Inhibition of CNV progression: A (greater than or equal to 60% inhibition)

## 2-cyclopropyl-N-(3-fluoro-4-(2-(5-((N- (2-methoxyethyl)-acetamido)methyl)pyridin-2- yl)thieno[3,2-b]-pyridin-7-yloxy)phenyl)-acetamide [Compound 42]
CNV progression
  Inhibition of CNV progression: A (greater than or equal to 60% inhibition)

## CC(C)NC(=O)Nc1ccc(Oc2ccnc3cc(-c4ncc(C(=O)NCCN5CCOCC5)n4C)sc23)c(F)c1 [Compound 218, 2-(7-(2-fluoro-4-(3-isopropylureido)phenoxy)thieno[3,2-b]pyridin-2-yl)-1-methyl-N-(2-morpholinoethyl)-1H-imidazole-5-carboxamide]
VEGFR/KDR
  IC50: < 0.05 µM
